Source: patent EP4003298B1 (Offhealth S.p.A., priority 2019, dated 2021)

Key:
[1] = test system: IL-1α; test: IL-1α release ELISA on SLS-irritated reconstructed human epidermis; format: cell-based; settings: positive control SLS 0.25% only
Protocol: The assay was performed in two replicates.
In this study IL-1α was determined in the culture medium of treated and untreated epidermis, using a direct ELIS assay (enzyme-linked immuno-absorbent assay). The colorimetric signal is directly proportional to the amount of cytokine in the culture medium. The samples are read at 450 nm. The detection limit is less than 10 pg/ml.
Cytokine concentration is determined using a standard curve. The inhibition of IL-1α release was determined as: % of IL-1α inhibition: 100−(pg/ml IL−1α released from irritated; samples/pg/ml IL−1α positive control)*100 [formula]

[2] = test system: reconstructed human epidermis; settings: 24 h
Protocol: The assay included a prime MTT assay at the end of the incubation: cell survival assay using the reconstructed in vitro 3D artificial human epidermis to assess the cytotoxic potential of the sample.
The in vitro test systems used consist of an artificial three-dimensional system of the human epidermis. A reconstructed model of artificial human skin was prepared comprising normal human epidermal keratinocytes, which was grown as an integrated three-dimensional cell culture model, perfectly mimicking human skin in vitro.
The epidermis was pre-treated for 60 minutes with 0.25% SLS and was obtained in order to induce the synthesis and release of IL-1α. Later 30 µl of the formulation object of the invention was applied on two portions of the epidermis in two replicates, and the exposure was carried out for 24 hours at 37°C, 5% C02. […]
The epidermal units are treated with 1 mg of MD (3-4,5-dimethyl-thiazol-2-yl)-2,5-diphenyl-tetrazolium bromide) solution for 3 hours at 37°C. The solution is then removed and replaced with isopropanol, with a further 2 hours of incubation at room temperature; 2 aliquots of each sample are transferred to a 96-well plate for reading. The absorbance is read at the 570 nm wavelength with a colorimeter (Tecan Sunrise remote model) provided with a microplate reader. […]

`CCCCCCCCCCCCOS(=O)(=O)[O-].[Na+]` [SLS, sodium lauryl sulfate] was tested, and the IL-1α pg/ml average ([1]; 6h) was 79.17 pg/mL, the IL-1α pg/ml average ([1]; 24h) was 233.86 pg/mL and the “% Average cell viability (ds)” value [2] was 65.79 (0.45) %.
